Publication PMC6941952, “A homogeneous bioluminescent immunoassay to probe cellular signaling pathway regulation” (Communications Biology, 2020)
Where “and” joins values, the source holds several entries; their conditions need not be identical. Identical values can stand only once.

Test system: STAT3 Phospho-Tyr705
Assay: NanoBiT pSTAT3 cell-based immunoassay in A431 cells
Set-up: species or system human
Conditions: IL-6 10 ng/ml; for P-STAT3 (% compared to no inhibitor): replicate
Experimental: Prior to NanoBiT Cell-Based Immunoassay, 50,000 cells were seeded in 160 µl of complete growth media per well of a 96-well plate and incubated overnight. […] If necessary, the cell culture media were replaced with serum-free media after the cells were stably adherent on the plate and incubated overnight. To treat cells with activators or inhibitors, medium was changed to 30 µl of medium containing inhibitors. If activation of a specific pathway is needed, the cells were stimulated with 10 µl of medium containing activators. To lyse the cells, 10 µl of lysis buffer containing 0.1% digitonin diluted in 1X immunoassay buffer with protease and phosphatase inhibitors was added and the plates were mixed vigorously for 20 min. Then, 50 µl of an antibody mix containing two primary antibodies against the target protein and NanoBiT detecting antibodies (0.3 µl each per well), diluted in 1X immunoassay buffer was added to the lysates. The plates were incubated at 23 °C for 90 min, followed by the addition of 25 µl of Nano-Glo® reagent consisting of Nano-Glo® Luciferase Assay Substrate mixed with 1X immunoassay buffer. Luminescence was measured using a plate-reading luminometer.
Single dose or dose response inhibitor treatments were performed prior to activation of the pathways as follows. For IκBα, the cells were treated in 30 µl medium with IKK16 or MG132 for 60 min before the addition of 10 µl of DMEM containing appropriate concentration of TNFα. To measure phosphorylation of AKT or STAT3, the corresponding NanoBiT immunoassays were developed with MCF-7 or A431 cells, respectively, according the same scheme used to develop the IκBα assay using the primary antibodies for AKT and STAT3 described in the reagents section. […] Treatment with LY294002 was performed in 30 µl medium and cells were incubated for 60 min before the addition of 1 µM Insulin. To measure STAT3 phosphorylation, A431 cells were incubated overnight in DMEM medium without serum. […] After addition of the stimulators, the cells were incubated for additional times as follows. IκBα phosphorylation and degradation analyses required both time courses and single time points as described in figures. […] The NanoBiT immunoassay protocol was followed as described above.
All 96-well assay plates were read using a GloMax® 96 Microplate Luminometer from Promega. The instrument was set to 0.5 s integration time. In order to obtain net change of signal, the reagent background values (signal from the well containing all reagent except primary antibodies) were subtracted from the sample values. To plot and analyze the data, Microsoft Excel and GraphPad Prism® Software were used. IC50 values were determined by using a nonlinear regression fit to a sigmoidal dose response (variable slope).

CN(C)C(=O)/C(C#N)=C/c1ccc(-c2nc3cnc4[nH]ccc4c3n2C2CCCCC2)o1 [FM-381]
P-STAT3 (% compared to no inhibitor) Average (inhibitor 0.0190735 nM): 105.1% | P-STAT3 (% compared to no inhibitor) Average (inhibitor 0.038147 nM): 92.2% | P-STAT3 (% compared to no inhibitor) Average (inhibitor 0.0762939 nM): 92.0% | P-STAT3 (% compared to no inhibitor) Average (inhibitor 0.152588 nM): 93.2% | P-STAT3 (% compared to no inhibitor) Average (inhibitor 0.305176 nM): 90.6% | P-STAT3 (% compared to no inhibitor) Average (inhibitor 0.610352 nM): 92.3% | P-STAT3 (% compared to no inhibitor) Average (inhibitor 1.2207 nM): 95.1% | P-STAT3 (% compared to no inhibitor) Average (inhibitor 2.44141 nM): 87.8% | P-STAT3 (% compared to no inhibitor) Average (inhibitor 4.88281 nM): 94.8% | P-STAT3 (% compared to no inhibitor) Average (inhibitor 9.76562 nM): 88.5% | P-STAT3 (% compared to no inhibitor) Average (inhibitor 19.5312 nM): 102.9% | P-STAT3 (% compared to no inhibitor) Average (inhibitor 39.0625 nM): 94.1% | P-STAT3 (% compared to no inhibitor) Average (inhibitor 78.125 nM): 88.7% | P-STAT3 (% compared to no inhibitor) Average (inhibitor 156.25 nM): 85.8% | P-STAT3 (% compared to no inhibitor) Average (inhibitor 312.5 nM): 74.2% | P-STAT3 (% compared to no inhibitor) Average (inhibitor 625 nM): 60.8% | P-STAT3 (% compared to no inhibitor) Average (inhibitor 2500 nM): 22.9% | P-STAT3 (% compared to no inhibitor) Average (inhibitor 5000 nM): 12.0% | P-STAT3 (% compared to no inhibitor) Average (inhibitor 10000 nM): 7.8% | P-STAT3 (% compared to no inhibitor) Average (inhibitor […]): 41.3% | P-STAT3 Raw data (inhibitor 0.0190735 nM): 278100 and 296300 and 285800 | P-STAT3 Subtract reagent background (inhibitor 0.0190735 nM): 177250 and 195450 and 184950 | P-STAT3 Raw data (inhibitor 0.038147 nM): 270700 and 268700 and 257500 | P-STAT3 Subtract reagent background (inhibitor 0.038147 nM): 168850 and 166850 and 155650 | P-STAT3 Raw data (inhibitor 0.0762939 nM): 272300 and 259800 and 258800 | P-STAT3 Subtract reagent background (inhibitor 0.0762939 nM): 172505 and 160005 and 159005 | P-STAT3 Raw data (inhibitor 0.152588 nM): 261700 and 262700 and 269600 | P-STAT3 Subtract reagent background (inhibitor 0.152588 nM): 162310 and 163310 and 170210 | P-STAT3 Raw data (inhibitor 0.305176 nM): 244400 and 266100 and 264700 | P-STAT3 Subtract reagent background (inhibitor 0.305176 nM): 145940 and 167640 and 166240 | P-STAT3 Raw data (inhibitor 0.610352 nM): 253900 and 276500 and 252400 | P-STAT3 Subtract reagent background (inhibitor 0.610352 nM): 156070 and 178670 and 154570 | P-STAT3 Raw data (inhibitor 1.2207 nM): 278300 and 261300 and 251600 | P-STAT3 Subtract reagent background (inhibitor 1.2207 nM): 184135 and 167135 and 157435 | P-STAT3 Raw data (inhibitor 2.44141 nM): 238200 and 252900 and 237300 | P-STAT3 Subtract reagent background (inhibitor 2.44141 nM): 150835 and 165535 and 149935 | P-STAT3 Raw data (inhibitor 4.88281 nM): 243400 and 259600 and 241900 | P-STAT3 Subtract reagent background (inhibitor 4.88281 nM): 162830 and 179030 and 161330 | P-STAT3 Raw data (inhibitor 9.76562 nM): 219800 and 245100 and 214000 | P-STAT3 Subtract reagent background (inhibitor 9.76562 nM): 149750 and 175050 and 143950 | P-STAT3 Raw data (inhibitor 19.5312 nM): 297400 and 269300 and 273700 | P-STAT3 Subtract reagent background (inhibitor 19.5312 nM): 172850 and 196550 and 168450 | P-STAT3 Raw data (inhibitor 39.0625 nM): 266500 and 275400 and 255500 | P-STAT3 Subtract reagent background (inhibitor 39.0625 nM): 153650 and 164650 and 173550 | P-STAT3 Raw data (inhibitor 78.125 nM): 243600 and 255500 and 264900 | P-STAT3 Subtract reagent background (inhibitor 78.125 nM): 165105 and 143805 and 155705 | P-STAT3 Raw data (inhibitor 156.25 nM): 244000 and 250600 and 253000 | P-STAT3 Subtract reagent background (inhibitor 156.25 nM): 153610 and 144610 and 151210 | P-STAT3 Raw data (inhibitor 312.5 nM): 227000 and 243200 and 212500 | P-STAT3 Subtract reagent background (inhibitor 312.5 nM): 114040 and 128540 and 144740 | P-STAT3 Raw data (inhibitor 625 nM): 189200 and 199400 and 224200 | P-STAT3 Subtract reagent background (inhibitor 625 nM): 126370 and 91370 and 101570 | P-STAT3 Raw data (inhibitor 2500 nM): 128000 and 133500 and 120100 | P-STAT3 Subtract reagent background (inhibitor 2500 nM): 32735 and 40635 and 46135 | P-STAT3 Raw data (inhibitor 5000 nM): 101000 and 109100 and 93870 | P-STAT3 Raw data (inhibitor 10000 nM): 84360 and 88520 and 77950 | P-STAT3 (% compared to no inhibitor) (inhibitor 0.0190735 nM): 88.0% and 120.5% and 106.8% | P-STAT3 (% compared to no inhibitor) (inhibitor 0.038147 nM): 83.9% and 102.9% and 89.9% | P-STAT3 (% compared to no inhibitor) (inhibitor 0.0762939 nM): 85.7% and 98.6% and 91.8% | P-STAT3 (% compared to no inhibitor) (inhibitor 0.152588 nM): 80.6% and 100.7% and 98.3% | P-STAT3 (% compared to no inhibitor) (inhibitor 0.305176 nM): 72.5% and 103.3% and 96.0% | P-STAT3 (% compared to no inhibitor) (inhibitor 0.610352 nM): 77.5% and 110.1% and 89.2% | P-STAT3 (% compared to no inhibitor) (inhibitor 1.2207 nM): 91.5% and 103.0% and 90.9% | P-STAT3 (% compared to no inhibitor) (inhibitor 2.44141 nM): 74.9% and 102.0% and 86.6% | P-STAT3 (% compared to no inhibitor) (inhibitor 4.88281 nM): 80.9% and 110.4% and 93.1% | P-STAT3 (% compared to no inhibitor) (inhibitor 9.76562 nM): 74.4% and 107.9% and 83.1% | P-STAT3 (% compared to no inhibitor) (inhibitor 19.5312 nM): 95.2% and 115.2% and 98.2% | P-STAT3 (% compared to no inhibitor) (inhibitor 39.0625 nM): 84.6% and 96.5% and 101.2% | P-STAT3 (% compared to no inhibitor) (inhibitor 78.125 nM): 90.9% and 84.3% and 90.8% | P-STAT3 (% compared to no inhibitor) (inhibitor 156.25 nM): 84.6% and 84.8% and 88.2% | P-STAT3 (% compared to no inhibitor) (inhibitor 312.5 nM): 62.8% and 75.3% and 84.4% | P-STAT3 (% compared to no inhibitor) (inhibitor 625 nM): 69.6% and 53.6% and 59.2% | P-STAT3 (% compared to no inhibitor) (inhibitor 2500 nM): 18.0% and 23.8% and 26.9% | P-STAT3 (% compared to no inhibitor) (inhibitor 5000 nM): 7.3% and 12.0% and 16.6% | P-STAT3 (% compared to no inhibitor) (inhibitor 10000 nM): 4.3% and 8.4% and 10.8%
